Earlier results, collected in US11065260B1, “Method of treatment for reducing pulmonary inflammation in a patient with pathogen infection using oral prostacyclin analog drugs” (priority 2020, dated 2021).

Experiments:
[1] = human, in vivo
pulmonary inflammation = conditions: several animal studies
[2] = human, in vivo, po
[3] = within 1 hour, pH 7.4 phosphate buffer, optimal formulation
[4] = patients with pulmonary hypertension and ARDS
[5] = human, in vivo, inhaled or intranasal
[6] = in vivo, po
COVID-19 [7] = conditions: randomized clinical trial of 199 patients
COVID-19 [8] = conditions: several small trials

## CC#CCC(C)[C@H](O)/C=C/[C@@H]1[C@H]2C/C(=C/CCCC(=O)O)C[C@H]2C[C@H]1O (stereo partly drawn) [iloprost]
[1]
  contraindications: no contraindications
  side effects: minimal side effects
Human monocytes
  production of interleukin IL-6: inhibit
  production of intracellular TNF-α: inhibit
Pulmonary inflammation
  pulmonary inflammation: reduce pulmonary inflammation
[2]
  adverse effects leading to discontinuation of dose escalation: flushing and headache
  bioavailable dose fraction: highest
  duration of half-maximal serum levels (mean): 2.4 h
  duration of therapeutic serum levels: 2.1 to 5.0 h
[3]
  in vitro dissolution of the dose: 60%
[4]
  gas exchange: improved
T cells
  IL-2 and RANKL: increasing
  TNF-α production by T cells: reducing
  number of T regulatory cells: reducing
[5]
  half-life: 20 to 30 min
[6]
  steady-state serum levels: 260 pg/mL

## lopinavir-ritonavir
COVID-19 [7]
  clinical benefit: No benefit

## CCN(CCO)CCCC(C)Nc1ccnc2cc(Cl)ccc12 (stereo not drawn) [hydroxychloroquine]
COVID-19 [8]
  clinical results: mixed results
